# According to ChEMBL document CHEMBL1201862, “PubChem BioAssay data set” (2004):
# “And” between values parts separate entries of the source, which are not always exact repeats. Equal values may be shown once.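 Growth conditions: 96-well plates. Treatment: test compound, 48 hours, 5 concentrations. Analysis: linear interpolation between bracketing concentrations; unreached endpoints set to highest concentration. At the GI50, growth is halved.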 The source made the active and inactive calls. Rule as the data show it: active = GI50 up to about 1.1 µM and inactive = higher.
# Tests used:
# Test in all cases: inhibition of tumour cell growth, NCI panel, 48 h
# T47D = system: T47D
# BT-549 = system: BT-549
# SK-MEL-28 = system: SK-MEL-28
# NCI-H522 = system: NCI-H522
# LOX IMVI = system: LOX IMVI
# SR = system: SR
# HCC 2998 = system: HCC 2998
# SK-OV-3 = system: SK-OV-3
# A549 = system: A549
# EKVX = system: EKVX
# COLO 205 = system: COLO 205
# RPMI-8226 = system: RPMI-8226
# SNB-19 = system: SNB-19
# OVCAR-5 = system: OVCAR-5
# M14 = system: M14
# HOP-92 = system: HOP-92
# ACHN = system: ACHN
# MOLT-4 = system: MOLT-4
# HCT-116 = system: HCT-116
SMILES,GI50 (T47D),GI50 (BT-549),GI50 (SK-MEL-28),GI50 (NCI-H522),GI50 (LOX IMVI),GI50 (SR),GI50 (HCC 2998),GI50 (SK-OV-3),GI50 (A549),GI50 (EKVX),GI50 (COLO 205),GI50 (RPMI-8226),GI50 (SNB-19),GI50 (OVCAR-5),GI50 (M14),GI50 (HOP-92),GI50 (ACHN),GI50 (MOLT-4),GI50 (HCT-116)
Brc1c2c(c(Br)c3nsnc13)N=S=N2,27.7 µM (inactive),12.3 µM (inactive),37.5 µM (inactive),23.4 µM (inactive),3.84 µM (inactive),4.82 µM (inactive),> 58.6 µM (inactive),46.2 µM (inactive),78.5 µM (inactive),27.2 µM (inactive),41.5 µM (inactive),22 µM (inactive),26.1 µM (inactive),27.6 µM (inactive),22.5 µM (inactive),17.4 µM (inactive),24.7 µM (inactive),17.9 µM (inactive),27.4 µM (inactive)
CCOC(=O)n1cncc1CC(NC(=O)Cc1c(C(=O)C=C(C)C)[nH]c2ccccc12)C(=O)OC (stereo not given),2.8 µM (inactive),20 µM (inactive),16 µM (inactive),3.56 µM (inactive),15.5 µM (inactive),3.56 µM (inactive),13.9 µM (inactive),17.5 µM (inactive),19.2 µM (inactive),15.5 µM (inactive),18.1 µM (inactive),32.5 µM (inactive),14.5 µM (inactive),15.5 µM (inactive),15.6 µM (inactive),12 µM (inactive),19.3 µM (inactive),20 µM (inactive),27.9 µM (inactive)
COc1ccc2cc(C(=O)NCCCNC(=O)c3ccc4cc(OC)ccc4c3)ccc2c1,> 75.7 µM (inactive),> 64.7 µM (inactive),> 100 µM (inactive),> 100 µM (inactive),> 100 µM (inactive),> 100 µM (inactive),> 100 µM (inactive),31.5 µM (inactive),> 100 µM (inactive),49.8 µM (inactive),> 100 µM (inactive),> 100 µM (inactive),17.2 µM (inactive),> 100 µM (inactive),> 100 µM (inactive),14.7 µM (inactive),33.7 µM (inactive),> 100 µM (inactive),> 86.7 µM (inactive)
C#CCCCOc1ncccn1,> 100 µM (inactive),> 100 µM (inactive),> 100 µM (inactive),> 100 µM (inactive),> 100 µM (inactive),> 100 µM (inactive),> 100 µM (inactive),> 100 µM (inactive),> 100 µM (inactive),> 100 µM (inactive),> 100 µM (inactive),> 100 µM (inactive),> 100 µM (inactive),> 100 µM (inactive),> 100 µM (inactive),> 100 µM (inactive),> 100 µM (inactive),> 100 µM (inactive),> 100 µM (inactive)
Cc1ccc(NC(=O)/C(Cc2cc(=O)oc3cc(O)ccc23)=N\NC(=O)C[N+](C)(C)C)cc1C,> 100 µM (inactive),> 100 µM (inactive),> 100 µM (inactive),> 100 µM (inactive),> 100 µM (inactive),> 100 µM (inactive),> 100 µM (inactive),> 100 µM (inactive),> 100 µM (inactive),> 100 µM (inactive),> 100 µM (inactive),> 100 µM (inactive),> 100 µM (inactive),> 100 µM (inactive),> 100 µM (inactive),> 100 µM (inactive),> 100 µM (inactive),> 100 µM (inactive),> 100 µM (inactive)
COc1cc(C2c3cc4c(cc3OC(NNS(=O)(=O)c3ccc(C)cc3)C2C)OCO4)cc(OC)c1OC (stereo not given),3.48 µM (inactive),3.32 µM (inactive),2.94 µM (inactive),1.25 µM (inactive),1.87 µM (inactive),0.839 µM (active),2.94 µM (inactive),4.13 µM (inactive),2.6 µM (inactive),2.05 µM (inactive),2.81 µM (inactive),2.08 µM (inactive),3.58 µM (inactive),9.14 µM (inactive),0.776 µM (active),2 µM (inactive),3 µM (inactive),1.89 µM (inactive),1.29 µM (inactive)
CCCCCCc1cc2cc(-c3cn4c(n3)sc3ccccc34)c(=O)oc2cc1O,> 100 µM (inactive),> 100 µM (inactive),3.39 µM (inactive),> 90.4 µM (inactive),> 100 µM (inactive),> 29.8 µM (inactive),> 100 µM (inactive),> 100 µM (inactive),> 100 µM (inactive),99.8 µM (inactive),> 100 µM (inactive),> 100 µM (inactive),> 100 µM (inactive),> 100 µM (inactive),4.94 µM (inactive),> 100 µM (inactive),> 100 µM (inactive),> 100 µM (inactive),> 95.1 µM (inactive)
Cc1ccc(-c2c(-c3ccccc3)[nH]c(C)c2C(=O)ONC(=O)c2ccccc2)cc1,4.6 µM (inactive),3.52 µM (inactive),12.1 µM (inactive),2.31 µM (inactive),1.75 µM (inactive),1.66 µM (inactive),15.5 µM (inactive),14.4 µM (inactive),2.52 µM (inactive),7.28 µM (inactive),11.7 µM (inactive),3.46 µM (inactive),6.38 µM (inactive),8.65 µM (inactive),5.19 µM (inactive),1.67 µM (inactive),1.91 µM (inactive),2.74 µM (inactive),2.48 µM (inactive)
O=C1N/C(=N/N=C\C(O)C(O)C(O)C(O)CO)N/C1=C/c1ccc(Cl)cc1 (stereo not given),49.7 µM (inactive) and 36.6 µM (inactive),> 100 µM (inactive),> 100 µM (inactive),55.6 µM (inactive) and 58.1 µM (inactive),> 100 µM (inactive),47.2 µM (inactive),95.7 µM (inactive) and 99.3 µM (inactive),> 100 µM (inactive),> 100 µM (inactive),> 100 µM (inactive) and 84.5 µM (inactive),> 100 µM (inactive),> 100 µM (inactive),> 100 µM (inactive),> 100 µM (inactive),> 100 µM (inactive),> 100 µM (inactive),> 100 µM (inactive),46 µM (inactive) and > 10 µM (inactive),> 100 µM (inactive)
O=C(Cc1ccc(Cl)c(Cl)c1)NCCCN1CCN(CCCN2CCCCC2)CC1,20.3 µM (inactive),21.9 µM (inactive),2.56 µM (inactive),15.7 µM (inactive),14.1 µM (inactive),11.7 µM (inactive),2.89 µM (inactive),19.2 µM (inactive),20.6 µM (inactive),19.2 µM (inactive),13.2 µM (inactive),2.71 µM (inactive),26.9 µM (inactive),20 µM (inactive),19.3 µM (inactive),11.1 µM (inactive),27.2 µM (inactive),10.9 µM (inactive),16.3 µM (inactive)
